Experimental data taken from US8329704B2, “Substituted pyrazinone derivatives for use in MCH-1 mediated diseases” (Janssen Pharmaceutica, N.V., priority 2005, dated 2012).

Target: T1, human MCH-1 receptor (Homo sapiens, UniProt Q99705)
T1 construct: expressed in transfected cells
Test: Ca2+ mobilization experiment for the MCH-1 receptor (FLIPR), inhibition of MCH-induced Ca2+ mobilization
Assay type: cell-based
Details: CHO cells stably expressing human MCH-1 receptor, inhibition of MCH-induced Ca2+ response, read-out: MCH-1 pIC50 (converted)
Procedure: The interaction of the compounds of Formula (I) with MCH-1 receptors was assessed in in vitro transient calcium (Ca^2+) mobilization assays in the fluorimetric imaging plate reader (FLIPR) format (Sullivan et al. 1999, Methods Mol Biol 114:125-133). In general, the natural agonist (MCH) is incubated with cells expressing the MCH-1 receptor, which elicits a concentration-dependent transient mobilization of Ca^2+ from internal stores. The interaction of the test compounds with the receptor is assessed in competition experiments. Various concentrations of the test compound are added to the incubation mixture containing the receptor-expressing cells and a submaximal concentration of MCH. The test compound in proportion to its antagonist potency and its concentration inhibits MCH-induced Ca^2+ mobilization.
Chinese Hamster ovary cells (CHO) stably expressing the human MCH-1 receptor are grown in a 1:1 mixture of Dulbecco's Modified Eagles Medium (DMEM) and HAM's F12 medium including Glutamax™ (Invitrogen), supplemented with 10% heat-inactivated fetal bovine serum and 400 μg/ml geneticin.
Twenty-four hours before the experiment, MCH-1 receptor-expressing CHO cells are seeded in 20 μl (5,000 cells per well) into 384-well black wall, clear bottom microtiter plates (Costar). On the day of the experiment, 20 μl per well calcium assay kit containing 10 mM probenicide (Molecular Devices) is added. Cells are loaded for 90 min at 37° C. and 5% CO2 in a cell culture incubator. After loading, 20 μl of serial dilutions of the test compound are added and cells are further incubated for 20 min at room temperature in the dark. After 20 min, 20 μl of a submaximal MCH concentration is added and changes in intracellular calcium are recorded directly in a FLIPR III apparatus (Molecular devices).
Data from assays in the presence of compound were calculated as a percentage of total Ca^2+-responses measured in the absence of test compound. Inhibition curves, plotting percent of total Ca^2+-responses versus the log value of the concentration of the test compound, were automatically generated, and sigmoidal inhibition curves were fitted using non-linear regression. The pIC50 values of test compounds were derived from individual curves.

T1 sequence (Q99705 whole entry): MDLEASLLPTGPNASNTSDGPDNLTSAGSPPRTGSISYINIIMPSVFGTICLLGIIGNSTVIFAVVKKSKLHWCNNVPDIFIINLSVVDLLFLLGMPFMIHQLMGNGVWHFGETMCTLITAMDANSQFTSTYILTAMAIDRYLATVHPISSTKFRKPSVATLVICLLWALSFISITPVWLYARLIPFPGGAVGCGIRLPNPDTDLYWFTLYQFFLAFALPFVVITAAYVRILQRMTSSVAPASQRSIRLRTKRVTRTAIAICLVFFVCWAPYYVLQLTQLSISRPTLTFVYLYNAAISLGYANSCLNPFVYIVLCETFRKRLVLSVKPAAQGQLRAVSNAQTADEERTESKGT

SMILES	IC50 [nM]
COc1cc(-n2ccnc(NCCc3ccccc3)c2=O)ccc1OCCN(C)CCO [3-37]	50.1
COc1cc(-n2ccnc(NCCc3ccccc3)c2=O)ccc1OCCN1CCOCC1 [3-59]	50.1
O=c1c(NCCOc2ccccc2)nccn1-c1ccc2c(cnn2CCN2CCCC2)c1 [3-85]	398
CN[C@@H]1CCN(c2ccc(-n3ccnc(SCCc4ccccc4)c3=O)cc2OC)C1 [6-03]	12.6
COc1cc(-n2ccnc(NCCCOc3ccccc3)c2=O)ccc1OC1CCNCC1 [7-01]	31.6
COc1cc(-n2ccnc(NCCc3ccccc3)c2=O)ccc1C=CCN1CCOCC1 [3-23]	39.8
CN[C@H]1CCN(c2ccc(-n3ccnc(SCCc4ccccc4)c3=O)cc2OC)C1 [6-02]	10
CN(C)CCCNc1ccc(-n2ccnc(NCCOc3ccccc3)c2=O)cc1 [1-21]	501
CCCN(C)C1CCN(c2ccc(-n3ccnc(NCCc4ccccc4)c3=O)cc2OC)C1 (stereo not shown) [3-15]	50.1
COc1cc(-n2ccnc(NCCCOc3ccccc3)c2=O)ccc1OCCN(C)C(C)=O [7-03]	31.6
O=c1c(NCCc2ccccc2)nccn1-c1ccc(N2CCNCC2)cc1 [3-06]	100
COc1cc(-n2ccnc(NCCOc3ccccc3)c2=O)ccc1OCCCN1CCC(O)C1 (stereo not shown) [1-76]	126
COc1cc(-n2ccnc(OCCc3ccccc3)c2=O)ccc1OCCN1CCCC1 [2-06]	79.4
CC(C)(C)OC(=O)N1CCN(c2ccc(-n3ccnc(NCCc4ccccc4)c3=O)cc2)CC1 [3-07]	501
O=c1c(NCCOc2ccccc2)nccn1-c1ccc(OCCCCN2CCCC2)cc1 [1-47]	1000
COc1cc(-n2ccnc(NCCc3ccccc3)c2=O)ccc1N1CCC(N(C2CC2)C2CC2)C1 (stereo not shown) [3-18]	158
COc1cc(-n2ccnc(NCCc3ccccc3)c2=O)ccc1OCCN1CCC(O)C1 (stereo not shown) [3-45]	31.6
COc1cc(-n2ccnc(NCCc3ccccc3)c2=O)ccc1OCCCN1CCC(O)C1 (stereo not shown) [3-70]	50.1
COc1cc(-n2ccnc(NCCOc3ccccc3)c2=O)ccc1N1CCC(NC(=O)C(C)C)CC1 [1-15]	100
COc1cc(-n2ccnc(NCCc3ccccc3)c2=O)ccc1OCCNC(C)=O [3-38]	63.1
CCN(CCOc1ccc(-n2ccnc(NCCOc3ccccc3)c2=O)cc1)Cc1ccncc1 [1-34]	1000
COc1cc(-n2ccnc(NCCOc3ccccc3)c2=O)ccc1OCCN(C)C(=O)c1ccccc1 [1-66]	251
COc1cc(-n2ccnc(N3CCC(Oc4ccccc4)CC3)c2=O)ccc1OCCN1CCCC1 [4-02]	631
COc1cc(-n2ccnc(NCCc3ccccc3)c2=O)ccc1NCCN1CCCC1 [3-28]	126
COc1cc(-n2ccnc(NCCc3ccccc3)c2=O)ccc1OCCN1CCC(C(=O)NC2CC2)CC1 [3-54]	20
COc1cc(-n2ccnc(NCCc3ccc(Cl)cc3)c2=O)ccc1OCCN1CCCC1 [2-24]	25.1
COc1cc(-n2ccnc(SCCc3ccccc3)c2=O)ccc1C=CCN1CCOCC1 [6-13]	20

SMILES	IC50 [nM]
CN(C(=O)OC(C)(C)C)C1CCN(c2ccc(-n3ccnc(NCCOc4ccccc4)c3=O)cc2)C1 (stereo not shown) [1-04]	1580
O=c1c(NCCc2ccccc2)nccn1-c1ccc2nc(N3CCCCC3)ccc2c1 [3-87]	200
COc1ccc(CCNc2nccn(-c3ccc(OCCN4CCCC4)c(OC)c3)c2=O)cc1 [2-36]	50.1
O=c1c(NCCc2ccccc2)nccn1-c1ccc(N2CCNCC2)c(Cl)c1 [3-77]	100
CC(C)N1CCN(c2ccc(-n3ccnc(NCCOc4ccccc4)c3=O)cc2)CC1 [1-07]	1580
COc1cc(-n2ccnc(NCCOc3ccccc3)c2=O)ccc1OCCN1CCOCC1 [1-74]	79.4
COc1cc(-n2ccnc(NCCc3ccccc3)c2=O)ccc1OCCCNC(=O)C(C)C [3-67]	126
CN(CCOc1ccc(-n2ccnc(NCCOc3ccccc3)c2=O)cc1)C1CCCCC1 [1-25]	631
COc1cc(-n2ccnc(NCCCOc3ccccc3)c2=O)ccc1OC1CCN(C(=O)OC(C)(C)C)CC1 [7-02]	126
COc1cc(-n2ccnc(NCCc3ccccc3)c2=O)ccc1OCCN1CCOC(CO)C1 (stereo not shown) [3-64]	100
CNC1CCN(c2ccc(-n3ccnc(NCCc4ccccc4)c3=O)cc2)C1 (stereo not shown) [3-02]	50.1
COc1cc(-n2ccnc(NCCc3ccccc3)c2=O)ccc1OCCN(C)C1CC1 [3-42]	31.6
O=c1c(NCCOc2ccccc2)nccn1-c1ccc(OCCN2CCCCC2)cc1 [1-38]	1580
O=c1c(NCCc2ccccc2)nccn1CCc1ccc(CN2CCOCC2)cc1 [9-02]	39.8
COc1cc(-n2ccnc(NCCc3ccccc3)c2=O)ccc1OCCN1[C@H](C)CCC[C@@H]1C [3-57]	31.6
CCCC(=O)NCCOc1ccc(-n2ccnc(NCCc3ccccc3)c2=O)cc1OC [3-39]	63.1
COc1cc(-n2ccnc(NCCOc3ccc(Cl)cc3Cl)c2=O)ccc1OCCN1CCCC1 [2-40]	200
CNC1CCN(c2ccc(-n3ccnc(NCCOc4ccccc4)c3=O)cc2)C1 (stereo not shown) [1-01]	501
O=c1c(NCCOc2ccccc2)nccn1-c1ccc(OCCN2CCCC2)nc1 [3-91]	3980
COc1cc(-n2ccnc(NCCc3ccccc3)c2=O)ccc1OCCN1CCCC1C(N)=O (stereo not shown) [3-48]	79.4
COc1cc(-n2ccnc(NCCc3ccccc3)c2=O)ccc1OC1CCN(C2CC2)C1 (stereo not shown) [3-33]	50.1
Cc1cc(-n2ccnc(NCCOc3ccccc3)c2=O)ccc1OCCN1CCCC1 [1-48]	50.1
CN(C)CC(=O)Nc1ccc(-n2ccnc(NCCOc3ccccc3)c2=O)cc1 [1-22]	2000
COc1cc(-n2ccnc(NCCc3ccccc3)c2=O)ccc1N1CCC(N(C)C)C1 (stereo not shown) [3-13]	50.1
O=c1c(NCCOc2ccccc2)nccn1-c1ccc(OCCN2CCCC2)c(CO)c1 [1-51]	126
COc1cc(-n2ccnc(NCCCOc3cccc(C#N)c3)c2=O)ccc1OCCN1CCCC1 [2-44]	79.4
COc1cc(-n2ccnc(NCCOc3ccccc3)c2=O)ccc1OCCCN1CCOCC1 [1-80]	63.1

SMILES	IC50 [nM]
CC(=O)N(C)C1CCN(c2ccc(-n3ccnc(NCCOc4ccccc4)c3=O)cc2)C1 (stereo not shown) [1-02]	251
COc1cc(-n2ccnc(NCCc3ccccc3Br)c2=O)ccc1OCCN1CCCC1 [2-19]	316
COc1cc(-n2ccnc(N3CCCC(c4ccccc4)C3)c2=O)ccc1OCCN1CCCC1 (stereo not shown) [4-01]	1260
COc1cc(-n2ccnc(NCCc3ccccc3)c2=O)ccc1OCCN1CCOC[C@H]1C [3-61]	79.4
COc1cc(-n2ccnc(NCCc3ccccc3)c2=O)ccc1N1CCCN(C)CC1 [3-19]	126
COc1cc(-n2ccnc(NCCOc3ccccc3)c2=O)ccc1OC1CCNCC1 [1-58]	63.1
COc1cc(-n2ccnc(NCCOc3ccccc3)c2=O)ccc1N1CCC(N)CC1 [1-13]	79.4
O=c1c(NCCOc2ccccc2)nccn1-c1ccc(OCCN2CCCC2)c(Cl)c1 [1-56]	7940
COc1cc(-n2ccnc(NCCc3ccccc3)c2=O)ccc1C=CCN1CCCC1 [3-22]	31.6
COc1cc(-n2ccnc(N3CCC(c4cccc(C(F)(F)F)c4)C3)c2=O)ccc1OCCN1CCCC1 (stereo not shown) [4-05]	2000
COc1cc(-n2ccnc(NCCOc3ccccc3)c2=O)ccc1OCCN1CCC(F)(F)CC1 [1-73]	50.1
COc1cc(-n2ccnc(SCCc3ccccc3)c2=O)ccc1N1CCC(N2C(C)CCCC2C)C1 (stereo not shown) [6-09]	31.6
COc1cc(-n2ccnc(NCCc3ccccc3)c2=O)ccc1OCCNC1CC1 [3-41]	25.1
O=c1c(NCCCOc2ccccc2)nccn1-c1ccc(OCCN2CCCC2)cc1 [2-12]	100
COC(=O)C1CCN(CCOc2ccc(-n3ccnc(NCCOc4ccccc4)c3=O)cc2)CC1 [1-42]	158
O=c1c(NCCOc2ccccc2)nccn1-c1ccc(N2CCNCC2)cc1 [1-06]	2000
COc1cc(-n2ccnc(NCCCOc3ccccc3)c2=O)ccc1OCCN1CCCC1 [2-13]	15.8
COCC(=O)NCCOc1ccc(-n2ccnc(NCCc3ccccc3)c2=O)cc1OC [3-43]	200
O=c1c(NCCOc2ccccc2)nccn1-c1ccc(OCCN2CCC(O)C2)cc1 (stereo not shown) [1-36]	316
COc1cc(-n2ccnc(NCCOc3ccccc3)c2=O)ccc1N1CCC(N(C)C(=O)C2CC2)C1 (stereo not shown) [1-12]	79.4
COc1cc(-n2ccnc(NCCOc3ccccc3)c2=O)ccc1OCCN(C)C(C)=O [1-61]	100
COc1cccc(CCNc2nccn(-c3ccc(OCCN4CCCC4)c(OC)c3)c2=O)c1 [2-35]	31.6
COc1cc(-n2ccnc(CCCc3ccccc3)c2=O)ccc1OCCN1CCCC1 [2-01]	126
COc1cc(-n2ccnc(NCCc3ccccc3)c2=O)ccc1OCCNC(=O)c1ccncc1 [3-44]	200
COc1cc(-n2ccnc(NCCc3ccc(C(F)(F)F)cc3)c2=O)ccc1OCCN1CCCC1 [2-34]	100
